Experimental data reported in PMC10038264, “A new family of glutamate-gated chloride channels in parasitic sea louse Caligus rogercresseyi: A subunit refractory to activation by ivermectin is dominant in heteromeric assemblies” (PLOS Pathogens, 2023).
Like-named read-outs stand apart in the source and are kept apart here.

Tests used:
[1] = test system: coexpressed CrGluCl-E:CrGluCl-B; test: Voltage-clamp of oocytes coexpressing CrGluCl-E and CrGluCl-B; type: cell-based, Caligus rogercresseyi; details: for Iver response to activation: B:E ratio 1:1, 1μM ivermectin
Method: (§1) Adult female Xenopus laevis frogs were anaesthetized by immersion in a1g/L solution tricaine (Ethyl 3-aminobenzoate methanesulfonate, Sigma) buffered to pH 7 with NaHCO3. Surgery was performed 30–40 min later, once the frog was completely anaesthetized judging by loss of reflexes. Ovarian lobes were removed through 1 cm abdominal incision and then kept at 16°C in Barth’s modified solution containing (in mM): 88 NaCl, 1 KCl, 0.4 CaCl2, 0.3 Ca (NO3)2, 0.8 MgSO4, 2.4 NaHCO3, 5 Hepes, 2.5 sodium pyruvate, 100 μg/ml gentamicin sulfate, 100 U/ml penicillin, 100 μg/ml streptomycin, 250 μg/ml amphotericin B, 0.22μm filtered and adjusted to pH 7.5 with Tris-Base. Osmolarity was brought to 220 mOsm with saccharose. The oocytes were manually defolliculated on the same day of extraction and the following day 20 ng cRNA in nuclease-free water was injected into stage V-VI oocytes using a FemtoJet microinjector (Eppendorf). Finally, the injected oocytes were stored in 96 well plates containing Barth’s modified solution and kept at 16°C until experiment day.
(§2) Current measurements at controlled membrane potentials (voltage-clamp experiments) were performed using two intracellular microelectrodes in defolliculated Xenopus oocytes previously microinjected with 20 ng of cRNA. Voltage-clamp recording was performed at room temperature using a TURBO TEC-10CX amplifier (npi electronic GmbH, Tamm, Germany) and PClamp 10.6 software (Axon Instruments, USA), 1 to 4 days after oocyte injection. The oocytes were recorded in a chamber (Model RC-1Z, Warner Instrumenst, USA) under continuous superfusion. […] Reference was an Ag-AgCl electrode connected to the bath via a 3 M KCl in 3% agar bridge. Currents were recorded continuously during the experiments without interruptions for solution changes. […] The signal filtered at 1 kHz was acquired with a Digidata 1440A Analog-to-Digital Converter and analyzed with Axon pClamp 10.6 software. […]

CrGluCl-E = test: Two-electrode voltage-clamp of Xenopus oocytes expressing CrGluCl-E; type: cell-based, Caligus rogercresseyi; details: CrGluCl-E alone; glutamate up to 1mM, 1μM ivermectin
Method: as §1, with “The oocytes were manually defolliculated on the same day of extraction and the following day 20 ng cRNA in nuclease-free water was injected into stage V-VI oocytes using a FemtoJet microinjector (Eppendorf). Finally, the injected oocytes were stored in 96 well plates containing Barth’s modified solution and kept at 16°C until experiment day.” left out
(§3) Current measurements at controlled membrane potentials (voltage-clamp experiments) were performed using two intracellular microelectrodes in defolliculated Xenopus oocytes previously microinjected with 20 ng of cRNA. […] The oocytes were recorded in a chamber (Model RC-1Z, Warner Instrumenst, USA) under continuous superfusion. […] Currents were recorded continuously during the experiments without interruptions for solution changes. […] The signal filtered at 1 kHz was acquired with a Digidata 1440A Analog-to-Digital Converter and analyzed with Axon pClamp 10.6 software. […]

[2] = test system: coexpressed CrGluCl-C:CrGluCl-B; test: Voltage-clamp of oocytes coexpressing CrGluCl-C and CrGluCl-B; type: cell-based, Caligus rogercresseyi; details: for Iver response to activation: B:C ratio 1:1, 1 μM ivermectin
Method: as §1, §2

[3] = test system: CrGluCl-B-Q279E-Y361F-Q327T triple mutant; test: Voltage-clamp of oocytes expressing CrGluCl-B triple mutant; type: cell-based, Caligus rogercresseyi
Excerpt: To identify putative GluCl subunits, we queried the NCBI Transcriptome Shotgun Assembly Sequence (TSA) Database for “glutamate-gated chloride channel Caligus”. The obtained sequences were translated and BLASTed (tBLASTn) against the C. rogercresseyi genome (WGS, BioProject ID 280098, NCBI) and against transcripts of L. salmonis database (https://licebase.org/). Primers for each of the putative new subunit found were designed to span the full length of the open reading frame (ORF) for each of them (B-E) (S1 Table, and arrows in Fig 1). Complete cDNAs were generated by RT-PCR from adult C. rogercresseyi samples from which putative full-length peptide sequences of CrGluCl-B, CrGluCl-C, CrGluCl-D and CrGluCl-E were obtained. Each PCR product was cloned in pGEM-T easy vector and sequenced. To express the clones in Xenopus laevis oocytes, ORF of CrGluCl-B, -C, -D and -E were cloned in pGH19 vector from pGEM-Teasy/CrGluCl using the following restriction enzymes: BamHI and XbaI (-B) and EcoRI (-D and -E). CrGluCl-C was cloned first in pCR3.1 vector with NotI and then into pGH19 with SpeI/XbaI. The CrGluCl/pGH19 plasmid were linearized with NheI (-A and -B) or XhoI (-C, -D, -E) and used as template for the synthesis of capped cRNA (complementary RNA) using the mMessage Machine T7 kit. Mutations were made by site-directed mutagenesis using the QuickChange method and confirmed by sequencing. […]
as §3

[4] = test system: coexpressed CrGluCl-C:CrGluCl-A; test: Voltage-clamp of oocytes coinjected with CrGluCl-C and CrGluCl-A; type: cell-based, Caligus rogercresseyi
Method: as §1, §2

[5] = target: coexpressed CrGluCl-E:CrGluCl-A (Caligus rogercresseyi, UniProt A0A1W6LZ70); test: Voltage-clamp of oocytes coinjected with CrGluCl-E and CrGluCl-A; type: cell-based; details: E:A ratio 1:1
Method: as §1, with “The oocytes were manually defolliculated on the same day of extraction and the following day 20 ng cRNA in nuclease-free water was injected into stage V-VI oocytes using a FemtoJet microinjector (Eppendorf). Finally, the injected oocytes were stored in 96 well plates containing Barth’s modified solution and kept at 16°C until experiment day.” left out
as §3

Sequence of coexpressed CrGluCl-E:CrGluCl-A (A0A1W6LZ70 entry or part of it): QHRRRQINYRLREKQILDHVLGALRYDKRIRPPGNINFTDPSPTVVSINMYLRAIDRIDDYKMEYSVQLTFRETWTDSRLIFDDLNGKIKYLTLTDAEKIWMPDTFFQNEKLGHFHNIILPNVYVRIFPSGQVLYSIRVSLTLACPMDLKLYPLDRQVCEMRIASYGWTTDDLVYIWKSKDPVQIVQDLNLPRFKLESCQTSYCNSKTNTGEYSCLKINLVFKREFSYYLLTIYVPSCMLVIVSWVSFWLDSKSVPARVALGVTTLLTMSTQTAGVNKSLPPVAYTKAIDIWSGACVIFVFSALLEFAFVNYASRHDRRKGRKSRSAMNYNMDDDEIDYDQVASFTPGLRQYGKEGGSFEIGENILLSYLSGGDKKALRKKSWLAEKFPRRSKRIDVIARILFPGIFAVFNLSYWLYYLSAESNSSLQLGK

N[C@@H](CCC(=O)O)C(=O)O [glutamate, L-glutamate]
EC50 ([1]; B:E ratio 1:1, 60 mV): 534 ± 239 µM | response (current activation) (CrGluCl-E): failed to show any response | EC50 ([2]; B:C ratio 1:1): 53 ± 18.8 µM | EC50 ([3]; read-out: EC50 glutamate): 103 ± 133 µM | EC50 ([4]; C:A 1:1, 60 mV, single Hill equation): 7.9 ± 0.9 µM | nH (glutamate) [5]: 2.5 ± 0.3

ivermectin
Iver response to activation [1]: without any activating effect | Iver response to activation ([1]; listed as Iver): Insensitive | response (current activation) (CrGluCl-E): failed to show any response | Iver response to activation [2]: failed to elicit a significant response | Iver response to activation ([2]; listed as Iver): Insensitive | nH (ivermectin) [3]: 1.6 ± 0.22 | EC50 ([3]; read-out: EC50 ivermectin): 0.094 ± 0.054 µM | Iver response to activation ([4]; C:A 1:1, 60mV): Sensitive | Iver response to activation ([4]; C:A 1:1, -80mV): Sensitive | Iver response to activation [5]: Sensitive
